From ChEMBL document CHEMBL3044875, “Synthesis and antimicrobial activity of some bisoctahydroxanthene-1,8-dione derivatives” (2011)
Calls of active or inactive are those of the source. No cut-off for these calls is given here.

How the values were obtained:
[1] = tested on: Staphylococcus aureus; test: Antibacterial activity against Staphylococcus aureus ATCC 25923 at 40 ug/disc after 24 hr by disk diffusion method; format: functional; conditions: for zone of inhibition at 40 µg/disc: ATCC 25923, 24 h, read-out: DIZ
[2] = tested on: Candida albicans; test: Antifungal activity against Candida albicans ATCC 10231 at 20 ug/disk after 48 hr by disk-diffusion method; format: functional; conditions: for zone of inhibition at 20 µg/disc: ATCC 10231, 48 h, read-out: DIZ
[3] = tested on: Nocardia; test: Antibacterial activity against Nocardia canis at 140 ug/disk after 24 hr by disk diffusion method; format: functional
[4] = tested on: Pseudomonas aeruginosa; test: Antibacterial activity against Pseudomonas aeruginosa ATCC 27853 at 40 ug/disk after 24 hr by disk-diffusion method; format: functional, organism-based
[5] = tested on: Escherichia coli; test: Antibacterial activity against Escherichia coli ATCC 25922 at 20 ug/disk after 24 hr by disk-diffusion method; format: functional
[6] = tested on: Pseudomonas aeruginosa; test: Antibacterial activity against Pseudomonas aeruginosa ATCC 27853 at 20 ug/disk after 24 hr by disk-diffusion method; format: functional, organism-based
[7] = tested on: Escherichia coli; test: Antibacterial activity against Escherichia coli ATCC 25922 at 40 ug/disk after 24 hr by disk-diffusion method; format: functional
[8] = tested on: Staphylococcus epidermidis; test: Antibacterial activity against Staphylococcus epidermidis ATCC 12228 at 20 ug/disk after 24 hr by disk diffusion method; format: functional, organism-based
[9] = tested on: Nocardia; test: Antibacterial activity against Nocardia canis at 20 ug/disk after 24 hr by disk diffusion method; format: functional, organism-based
[10] = tested on: Proteus vulgaris; test: Antibacterial activity against Proteus vulgaris NRRL-B-123 at 140 ug/disk after 24 hr by disk diffusion method; format: functional, organism-based
[11] = tested on: Aspergillus niger; test: Antifungal activity against Aspergillus niger ATCC 10949 at 140 ug/disk after 72 hr by disk diffusion method; format: functional; conditions: for zone of inhibition at 140 µg/disc: ATCC 10949, 72 h, read-out: DIZ
[12] = tested on: Bacillus cereus; test: Antibacterial activity against Bacillus cereus NRRL 3711 at 40 ug/disk after 24 hr by disk diffusion method; format: functional; conditions: for zone of inhibition at 40 µg/disc: NRRL 3711, 24 h, read-out: DIZ
[13] = tested on: Pseudomonas aeruginosa; test: Antibacterial activity against Pseudomonas aeruginosa ATCC 27853 at 140 ug/disk after 24 hr by disk-diffusion method; format: functional, organism-based
[14] = tested on: Staphylococcus epidermidis; test: Antibacterial activity against Staphylococcus epidermidis ATCC 12228 at 140 ug/disk after 24 hr by disk diffusion method; format: functional; conditions: for zone of inhibition at 140 µg/disc: ATCC 12228, 24 h, read-out: DIZ
[15] = tested on: Nocardia; test: Antibacterial activity against Nocardia canis at 40 ug/disk after 24 hr by disk diffusion method; format: functional
[16] = tested on: Rhodotorula mucilaginosa; test: Antifungal activity against Rhodotorula mucilaginosa at 20 ug/disk after 48 hr by disk diffusion method; format: functional; conditions: for zone of inhibition at 20 µg/disc: read-out: DIZ
[17] = tested on: Rhodotorula mucilaginosa; test: Antifungal activity against Rhodotorula mucilaginosa at 40 ug/disk after 48 hr by disk diffusion method; format: functional; conditions: for zone of inhibition at 40 µg/disc: read-out: DIZ
[18] = tested on: Staphylococcus aureus; test: Antibacterial activity against Staphylococcus aureus ATCC 25923 at 140 ug/disc after 24 hr by disk diffusion method; format: functional; conditions: for zone of inhibition at 140 µg/disc: ATCC 25923, 24 h, read-out: DIZ
[19] = tested on: Aspergillus niger; test: Antifungal activity against Aspergillus niger ATCC 10949 at 40 ug/disk after 72 hr by disk diffusion method; format: functional, organism-based
[20] = tested on: Staphylococcus aureus; test: Antibacterial activity against Staphylococcus aureus ATCC 25923 at 20 ug/disc after 24 hr by disk diffusion method; format: functional; conditions: for zone of inhibition at 20 µg/disc: ATCC 25923, 24 h, read-out: DIZ
[21] = tested on: Candida albicans; test: Antifungal activity against Candida albicans ATCC 10231 at 140 ug/disk after 48 hr by disk-diffusion method; format: functional; conditions: ATCC 10231, 48 h, read-out: DIZ
[22] = tested on: Bacillus cereus; test: Antibacterial activity against Bacillus cereus NRRL 3711 at 20 ug/disk after 24 hr by disk diffusion method; format: functional; conditions: for zone of inhibition at 20 µg/disc: NRRL 3711, 24 h, read-out: DIZ
[23] = tested on: Staphylococcus epidermidis; test: Antibacterial activity against Staphylococcus epidermidis ATCC 12228 at 40 ug/disk after 24 hr by disk diffusion method; format: functional
[24] = tested on: Bacillus cereus; test: Antibacterial activity against Bacillus cereus NRRL 3711 at 140 ug/disk after 24 hr by disk diffusion method; format: functional; conditions: for zone of inhibition at 140 µg/disc: NRRL 3711, 24 h, read-out: DIZ
[25] = tested on: Aspergillus niger; test: Antifungal activity against Aspergillus niger ATCC 10949 at 20 ug/disk after 72 hr by disk diffusion method; format: functional, organism-based
[26] = tested on: Proteus vulgaris; test: Antibacterial activity against Proteus vulgaris NRRL-B-123 at 40 ug/disk after 24 hr by disk diffusion method; format: functional, organism-based
[27] = tested on: Rhodotorula mucilaginosa; test: Antifungal activity against Rhodotorula mucilaginosa at 140 ug/disk after 48 hr by disk diffusion method; format: functional; conditions: for zone of inhibition at 140 µg/disc: read-out: DIZ
[28] = tested on: Candida albicans; test: Antifungal activity against Candida albicans ATCC 10231 at 40 ug/disk after 48 hr by disk-diffusion method; format: functional; conditions: ATCC 10231, 48 h, read-out: DIZ
[29] = tested on: Proteus vulgaris; test: Antibacterial activity against Proteus vulgaris NRRL-B-123 at 20 ug/disk after 24 hr by disk diffusion method; format: functional, organism-based
[30] = tested on: Escherichia coli; test: Antibacterial activity against Escherichia coli ATCC 25922 at 140 ug/disk after 24 hr by disk-diffusion method; format: functional
[31] = ATCC 25922, 24 h, read-out: DIZ

Row | Structure (SMILES) | diameter of the inhibition zone (DIZ) [3] | diameter of the inhibition zone (DIZ) [4] | diameter of the inhibition zone (DIZ) [5] | diameter of the inhibition zone (DIZ) [6] | diameter of the inhibition zone (DIZ) [7] | diameter of the inhibition zone (DIZ) [8] | diameter of the inhibition zone (DIZ) [9] | diameter of the inhibition zone (DIZ) [10] | diameter of the inhibition zone (DIZ) [13] | diameter of the inhibition zone (DIZ) [15] | diameter of the inhibition zone (DIZ) [19] | zone of inhibition at 140 µg/disc [21] [mm] | diameter of the inhibition zone (DIZ) [23] | diameter of the inhibition zone (DIZ) [25] | diameter of the inhibition zone (DIZ) [26] | zone of inhibition at 40 µg/disc [28] [mm] | diameter of the inhibition zone (DIZ) [29] | diameter of the inhibition zone (DIZ) [30] | zone of inhibition at 140 µg/disc [24] [mm] | zone of inhibition at 140 µg/disc [27] [mm] | further results
1 | COc1ccc(C2CC(=O)C3=C(C2)OC2=C(C(=O)CC(c4ccc(OC)c(OC)c4)C2)C3c2ccc(C3C4=C(CC(c5ccc(OC)c(OC)c5)CC4=O)OC4=C3C(=O)CC(c3ccc(OC)c(OC)c3)C4)cc2)cc1OC (stereo not given) | inactive | inactive | inactive | inactive | inactive | inactive | inactive | inactive | inactive | inactive | inactive | 7 | inactive | inactive | inactive | 7 | inactive | inactive |  |  | diameter of the inhibition zone (DIZ) [1]: inactive; diameter of the inhibition zone (DIZ) [2]: inactive; diameter of the inhibition zone (DIZ) [11]: inactive; diameter of the inhibition zone (DIZ) [12]: inactive; diameter of the inhibition zone (DIZ) [14]: inactive; diameter of the inhibition zone (DIZ) [16]: inactive; diameter of the inhibition zone (DIZ) [17]: inactive; diameter of the inhibition zone (DIZ) [18]: inactive; diameter of the inhibition zone (DIZ) [20]: inactive; diameter of the inhibition zone (DIZ) [22]: inactive; diameter of the inhibition zone (DIZ) [24]: inactive; diameter of the inhibition zone (DIZ) [27]: inactive
2 | CC1(C)CC(=O)C2=C(C1)OC1=C(C(=O)CC(C)(C)C1)C2c1ccc(C2C3=C(CC(C)(C)CC3=O)OC3=C2C(=O)CC(C)(C)C3)cc1 | inactive | inactive | inactive | inactive | inactive | inactive | inactive | inactive | inactive | inactive | inactive | 9 | inactive | inactive | inactive | 9 | inactive | inactive | 7 | 9 | diameter of the inhibition zone (DIZ) [1]: inactive; diameter of the inhibition zone (DIZ) [2]: inactive; diameter of the inhibition zone (DIZ) [11]: inactive; diameter of the inhibition zone (DIZ) [12]: inactive; diameter of the inhibition zone (DIZ) [14]: inactive; diameter of the inhibition zone (DIZ) [16]: inactive; diameter of the inhibition zone (DIZ) [17]: inactive; diameter of the inhibition zone (DIZ) [18]: inactive; diameter of the inhibition zone (DIZ) [20]: inactive; diameter of the inhibition zone (DIZ) [22]: inactive
3 | O=C1CCCC2=C1C(c1ccc(C3C4=C(CCCC4=O)OC4=C3C(=O)CCC4)cc1)C1=C(CCCC1=O)O2 | inactive | inactive | inactive | inactive | inactive | inactive | inactive | inactive | inactive | inactive | inactive | 8 | inactive | inactive | inactive | 8 | inactive | inactive | 8 | 10 | zone of inhibition at 40 µg/disc [1]: 10 mm; zone of inhibition at 20 µg/disc [2]: 7 mm; zone of inhibition at 140 µg/disc [11]: 7 mm; zone of inhibition at 40 µg/disc [12]: 9 mm; zone of inhibition at 140 µg/disc [14]: 7 mm; zone of inhibition at 20 µg/disc [16]: 8 mm; zone of inhibition at 40 µg/disc [17]: 9 mm; zone of inhibition at 140 µg/disc [18]: 14 mm; zone of inhibition at 20 µg/disc [20]: 8 mm; zone of inhibition at 20 µg/disc [22]: 8 mm
4 | CC1(C)CCC2=C(C1=O)C(c1cccc(C3C4=C(CCC(C)(C)C4=O)OC4=C3C(=O)C(C)(C)CC4)c1)C1=C(CCC(C)(C)C1=O)O2 |  | inactive |  | inactive |  | inactive | inactive | inactive | inactive |  | inactive | 9 |  | inactive | inactive | 9 | inactive |  | 9 | 12 | zone of inhibition at 40 µg/disc [1]: 10 mm; zone of inhibition at 20 µg/disc [2]: 8 mm; zone of inhibition at 140 µg/disc ([3]; read-out: DIZ): 8 mm; zone of inhibition at 20 µg/disc [5, 31]: 7 mm; zone of inhibition at 40 µg/disc [7, 31]: 8 mm; zone of inhibition at 140 µg/disc [11]: 7 mm; zone of inhibition at 40 µg/disc [12]: 9 mm; zone of inhibition at 140 µg/disc [14]: 10 mm; zone of inhibition at 40 µg/disc ([15]; read-out: DIZ): 7 mm; zone of inhibition at 20 µg/disc [16]: 8 mm; zone of inhibition at 40 µg/disc [17]: 9 mm; zone of inhibition at 140 µg/disc [18]: 15 mm; zone of inhibition at 20 µg/disc [20]: 8 mm; zone of inhibition at 20 µg/disc [22]: 8 mm; zone of inhibition at 40 µg/disc ([23]; ATCC 12228, 24 h, read-out: DIZ): 8 mm; zone of inhibition at 140 µg/disc [30, 31]: 9 mm
